In patent US20250091982A1, “Pharmaceutical Composition, Methods of Use Thereof for Treating Cocaine Addiction, and Novel Use of Hausp K444R Point Mutant Mouse” (PHARWAR BIOTECHNOLOGY, INC. PTE. LTD., priority 2022, published 2025):

Assays:
[1] = test system: HAUSP levels in SH-SY5Y cells; assay: Western blot of HAUSP in cocaine-treated SH-SY5Y cells; details: cocaine 200 μM with inhibitor, 24 hr; for HAUSP levels decreased by cocaine in SH-SY5Y cells (western blot): FIG. 14C; for relative protein expression ratios of HAUSP normalized with β-actin: quantified with ImageJ, FIG. 14D
SIAH1 = target: T1, SIAH1 (Homo sapiens, UniProt Q8IUQ4); assay: E3-ligase auto ubiquitination assay (K48-linked polyubiquitination of HAUSP mediated by SIAH1); assay type: biochemical; details: 37° C., 1 hour, Western blot with Ub-K48 antibody, compared to vehicle; FIG. 14A, 14B
T1 sequence (Q8IUQ4 1-282): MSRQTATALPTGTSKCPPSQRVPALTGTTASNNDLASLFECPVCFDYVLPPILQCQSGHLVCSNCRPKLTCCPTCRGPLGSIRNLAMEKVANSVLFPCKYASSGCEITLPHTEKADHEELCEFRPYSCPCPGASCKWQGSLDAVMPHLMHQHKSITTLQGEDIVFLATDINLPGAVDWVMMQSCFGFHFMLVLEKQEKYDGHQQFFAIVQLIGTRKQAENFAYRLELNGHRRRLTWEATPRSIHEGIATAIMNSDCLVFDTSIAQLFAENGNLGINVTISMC
Procedure: SIAH1 mediates the K48-linked polyubiquitination of HAUSP. Therefore, for the ubiquitination assay, SIAH1 was incubated in the solution (0.25 mg/1 ml, total 100 μg) containing 20 mM Tris-HCl buffer (pH 8.0), 100 mM NaCl, 1 mM DTT and 40% glycerol and HAUSP (50 μg) was in 50 mM HEPES pH 7.5, 100 mM NaCl, 1 mM TCEP (tris (2-carboxyethyl) phosphine) buffer. […] The E3-ligase auto ubiquitination assay was performed by E3 Ligase Auto-Ubiquitilylation Assay Kit (Abcam, ab139469, UK).

[2] = test system: cocaine conditioned place preference; assay: Conditioned place preference (CPP) test induced by cocaine; assay type: in vivo, mice; details: compound 10 mg/kg 10 mins before cocaine 25 mg/kg i.p.; FIG. 12D
From the text: (§1) Conditioned place preference (CPP) is a classical conditioning paradigm used in behavioral neuroscience to study the rewarding and aversive properties of drugs or other stimuli. It involves associating a particular environment or location with the experience of a rewarding or aversive stimulus, such as drugs, food, or electric shock. In CPP experiment, mice were first trained to associate one compartment of a box and then, they were placed in the neutral compartment and allowed to freely explore both compartments, and animals' preference for one compartment over the other was measured. After vehicle/Compound 2-2 (10 mg/kg)/Compound 2-3 (10 mg/kg)/Compound 3-3 (10 mg/kg) treatment for 10 mins, the well-trained mice were administrated with cocaine (25 mg/kg, i.p.) for 30 mins. The content of the vehicle is 0.5% DMSO, 25% PEG-300, 4% Tween-80, and 70.5% saline. The locomotion activity experiment was the same as the method of open field test described in Experiment 2.

[3] = test system: lever press induced by cocaine; assay: Lever press test (cocaine self-administration); assay type: in vivo, mice; details: 10 mg/kg intraperitoneally 10 min prior to cocaine self-administration
Procedure: Mice were anesthetized with isoflurane (induction and maintenance at 4%-5%) for surgical implantation of a jugular vein catheter connected to a head-mounted entry port. Briefly, the right jugular vein was exposed, and the catheter tubing was inserted and secured to the vein. The catheter was passed under the skin to an incision on the head, and the port was secured to the skull with dental cement anchored by screws. Mice were given buprenorphine (0.05-0.10 mg/kg, intraperitoneal.) for analgesia and allowed to recover for 7-10 days before beginning self-administration. Catheter patency was maintained by daily infusion of 100 μl heparin (120 U/μl) through the catheter and treated with Cefazolin, 200 mg/kg, subcutaneously, to prevent bacterial infections.
The lever press test was done in extra wide mouse operant chambers with a modified top (Med Associates, VT, USA). The chamber contained a retractable lever, a food pellet receptacle connected to a pellet dispenser, with a stimulus light above the pellet receptacle, and contained a house light. Cocaine was delivered by a syringe pump located outside the chamber, and the drug delivery tubing was connected to the mice through a swivel (Instech, Plymouth Meeting, PA, USA) and the swivel arm connected on top of the chamber to allow free movement of the mice during self-administration. All the sessions were remotely operated and recorded by MED-PC V software (Med Associates, VT, USA). Mice were pre-trained with food through pressing the levers and were food-restricted during the study. After training, mice were provided ad libitum access to water and food.
Self-administration sessions took place once daily during the light-dark cycle for 14 consecutive days. Before starting the study, mice were allowed to acclimate to the housing for approximately 3 days. The availability of cocaine reward was indicated by illumination of the house light and pressing levers. […] Each infusion was paired with a cue (1 s illumination of the stimulus green light) followed by a 10-second time-out signaled by turning off the house light. […] Each chamber was operated under a 3-hour session, or until mice received 100 infusions (20 mg/kg) of cocaine (to prevent cocaine overdose). No treatment groups were implanted with a catheter and placed in the operant chambers with identical cues but not connected to the syringe pump and received no reward for pressing the active levers. Vehicle or inhibitor (Compound 2-2, Compound 2-3, or Compound 3-3) with a dosage of 10 mg/kg was injected intraperitoneally for 10 min prior to cocaine self-administration. The content of the vehicle is 0.5% DMSO, 25% PEG-300, 4% Tween-80, and 70.5% saline. Mice met criteria for acquisition of self-administration when they: (1) self-administered at least 30 infusions in a session; (2) >85% of responses were on the active […]; and (3) had no more than 20% variation in number of infusions between sessions. The lever press frequency and number within 3 hours indicate the cocaine addiction symptom.

[4] = test system: locomotion activity induced by cocaine; assay: Locomotion activity (open field test) of cocaine induced mice; assay type: in vivo; details: compound 10 mg/kg 10 mins before cocaine 25 mg/kg i.p.; FIGS. 12A to 12C
From the text: 8 mice from Preparation Example 2 were randomly chosen to conduct Locomotion Activity I. The open fields using white acrylic chambers measured 50 cm (length)×50 cm (width)×38 cm (height) were made from white high density and non-porous plastics. Once the Video Tracking software (ANY-maze, Stoelting Co, IL, USA) was opened, the cursor was moved to the “Single-Subject Tracking” option located under the “Data Acquisition” tab and single-clicked to open this option. The software package used in this protocol allows the tracking of up to 6 individual mice at one time. The mice were brought to open fields to acclimate to the procedure room for 30 minutes (min) prior to starting the test. The tracking plot of randomly chosen 6 mice was recorded and analyzed by ANY-maze software.
as §1

inhibition of K48-linked polyubiquitination of HAUSP mediated by SIAH1 (SIAH1) | Compound | HAUSP levels decreased by cocaine in SH-SY5Y cells (western blot) [1] | relative protein expression ratios of HAUSP normalized with β-actin [1] | time spent in cocaine paired compartments (CPP test) [2] | cumulative cocaine reinforcements ([3]; FIG. 13G) | latency to first response in mice treated with cocaine ([3]; FIG. 13H) | lever press frequencies induced by cocaine treatment ([3]; FIGS. 13A to 13F) | increased locomotion activity or increased distance traveled induced by cocaine treatment [4]
can inhibit | COCCNC(=O)c1ccccc1NS(=O)(=O)c1ccccc1C [Compound 3-1, N-(2-Methoxyethyl)-2-((2-methylphenyl)sulfonamido)benzamide] | can restore | can restore | – | – | – | – | –
can inhibit | COCCNC(=O)c1ccc(Cl)cc1NS(=O)(=O)c1c(C)cc(C)cc1C [Compound 2-4, 4-Chloro-N-(2-methoxyethyl)-2-((2,4,6-trimethylphenyl)sulfonamido)benzamide] | can restore | can restore | – | – | – | – | –
can inhibit | COCCNC(=O)c1ccc(Br)cc1NC(=O)c1ccccc1C [Compound 4-1, 4-Bromo-N-(2-methoxyethyl)-2-(2-methylbenzamido)benzamide] | can restore | can restore | – | – | – | – | –
can inhibit | COCCNC(=O)c1ccc(Cl)cc1NS(=O)(=O)c1ccccc1C [Compound 2-1, 4-Chloro-N-(2-methoxyethyl)-2-((2-methylphenyl)sulfonamido)benzamide] | can restore | can restore | – | – | – | – | –
can inhibit | CCOCCNC(=O)c1ccc(Cl)cc1NC(=O)c1ccccc1C [Compound 6-1, 4-Chloro-N-(2-ethoxyethyl)-2-(2-methylbenzamido)benzamide] | can restore | can restore | – | – | – | – | –
can inhibit | CC(C)(C)C(=O)Oc1ccc(S(=O)(=O)Nc2ccccc2C(=O)NCCO)cc1 [Compound 12-1] | can restore | can restore | – | – | – | – | –
can inhibit | Cc1ccccc1S(=O)(=O)Nc1ccccc1C(=O)NCCO [Compound 12-2, N-(2-hydroxyethyl)-2-(2-methylphenylsulfonamido)benzamide] | can restore | can restore | – | – | – | – | –
can inhibit | COCCNC(=O)c1ccccc1NC(=O)c1ccccc1C [Compound 3-2, N-(2-Methoxyethyl)-2-(2-methylbenzamido)benzamide] | can restore | can restore | – | – | – | – | –

The next lines start with the compound.

Compound | inhibition of K48-linked polyubiquitination of HAUSP mediated by SIAH1 (SIAH1) | HAUSP levels decreased by cocaine in SH-SY5Y cells (western blot) [1] | relative protein expression ratios of HAUSP normalized with β-actin [1] | time spent in cocaine paired compartments (CPP test) [2] | cumulative cocaine reinforcements ([3]; FIG. 13G) | latency to first response in mice treated with cocaine ([3]; FIG. 13H) | lever press frequencies induced by cocaine treatment ([3]; FIGS. 13A to 13F) | increased locomotion activity or increased distance traveled induced by cocaine treatment [4]
COCCNC(=O)c1ccc(Cl)cc1NC(=O)c1c(F)cccc1F [Compound 2-5, 4-Chloro-N-(2-methoxyethyl)-2-(2,6-difluorobenzamido)benzamide] | can inhibit | can restore | can restore | – | – | – | – | –
CCCOCCNC(=O)c1ccc(Cl)cc1NC(=O)c1ccccc1C [Compound 7-1, 4-Chloro-N-(2-propoxyethyl)-2-(2-methylbenzamido)benzamide] | can inhibit | can restore | can restore | – | – | – | – | –
Cc1ccccc1C(=O)OCCOC(=O)c1ccc(Cl)cc1N [Compound 1-1, 2-((2-Methylbenzoyl)oxy) ethyl 2-amino-4-chlorobenzoate] | can inhibit | can restore | can restore | – | – | – | – | –
COCCNC(=O)c1ccc(Cl)cc1NC(=O)c1c(C)cc(C)cc1C [Compound 2-3, N-(5-Chloro-2-((2-methoxyethyl)carbamoyl)phenyl)-2,4,6-trimethylbenzamide] | can inhibit | can restore | can restore | decreased | decreased | increased | decreased | decreased
COCCNC(=O)c1ccc(C)cc1NC(=O)c1c(C)cc(C)cc1C [Compound 5-2, N-(2-((2-Methoxyethyl)carbamoyl)-5-methylphenyl)-2,4,6-trimethylbenzamide] | can inhibit | can restore | can restore | – | – | – | – | –
COCCNC(=O)c1ccc(Br)cc1NC(=O)c1c(C)cc(C)cc1C [Compound 4-2, N-(5-Bromo-2-((2-methoxyethyl)carbamoyl)phenyl)-2,4,6-trimethylbenzamide] | can inhibit | can restore | can restore | – | – | – | – | –
